Patent US8455475B2 (Gruenenthal GmbH, priority 2009, dated 2013)

What follows are compounds tested against T1, rat B1R (bradykinin receptor 1) (Rattus norvegicus, UniProt P97583) (assay: FLIPR Ca2+ assay (Fluo-4) on CHO K1 cells stably transfected with the B1R gene of the rat (rB1R cells): % inhibition at 10 μM / IC50, agonist Des-Arg9-bradykinin). Conditions: CHO-K1, rat B1R.
T1 construct: expressed in transfected cells; host or cells: CHO K1 cells
T1 sequence (P97583 1-337): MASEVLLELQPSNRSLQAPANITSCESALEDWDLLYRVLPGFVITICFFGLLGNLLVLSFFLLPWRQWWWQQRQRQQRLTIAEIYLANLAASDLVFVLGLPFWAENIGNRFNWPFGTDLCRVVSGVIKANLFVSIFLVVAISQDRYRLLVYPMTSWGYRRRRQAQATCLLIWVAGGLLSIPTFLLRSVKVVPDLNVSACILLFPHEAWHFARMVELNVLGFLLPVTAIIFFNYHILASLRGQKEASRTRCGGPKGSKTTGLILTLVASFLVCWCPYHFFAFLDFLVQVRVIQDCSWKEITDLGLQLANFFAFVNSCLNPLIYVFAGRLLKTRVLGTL
Format: cell-based
In short: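 Stably transfected CHO K1 cells loaded with Fluo-4 and read on FLIPR (λex 488, λem 540 nm; peak fluorescence). Test substance (10 μM) added first, then after 10–20 min the agonist at EC80; % inhibition versus maximum achievable inhibition. IC50 from several concentrations, n=2–3, N≥2.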

Structure (SMILES)	inhibition at 10 µM
O=C(NC1CCc2ccc(C(=O)N3CCC4(CCN(C(=O)Nc5ccc(F)c(Cl)c5)CC4)C3)cc21)c1ccccc1Cl (stereo not drawn) [IND_CC-502, 2-[3-[(2-Chloro-benzoyl)amino]-2,3-dihydro-1H-indene-5-carbonyl]-N-(3-chloro-4-fluoro-phenyl)-2,8-diazaspiro[4.5]decane-8-carboxylic acid amide]	71%
N#Cc1cccc(NC(=O)N2CCC3(CC2)CCN(C(=O)c2ccc4c(c2)C(NC(=O)c2ccccc2Cl)CC4)C3)c1 (stereo not drawn) [IND_CC-503, 2-[3-[(2-Chloro-benzoyl)amino]-2,3-dihydro-1H-indene-5-carbonyl]-N-(3-cyano-phenyl)-2,8-diazaspiro[4.5]decane-8-carboxylic acid amide]	66%
O=C(NC1CCc2ccc(C(=O)N3CCC4(CCN(Cc5c(F)cccc5F)CC4)C3)cc21)c1ccccc1Cl (stereo not drawn) [IND_CC-504, 2-Chloro-N-[6-[8-[(2,6-difluoro-phenyl)-methyl]-2,8-diazaspiro[4.5]decane-2-carbonyl]-2,3-dihydro-1H-inden-1-yl]-benzamide]	51%
O=C(NC1CCc2ccc(C(=O)N3CCC4(CCN(Cc5c[nH]cn5)CC4)CC3)cc21)c1ccccc1Cl (stereo not drawn) [IND_CC-508, 2-Chloro-N-[6-[9-(1H-imidazol-4-yl-methyl)-3,9-diazaspiro[5.5]undecane-3-carbonyl]-2,3-dihydro-1H-inden-1-yl]-benzamide]	100%
O=C(NC1CCc2ccc(C(=O)N3CCC4(CCN(Cc5ccccn5)CC4)CC3)cc21)c1ccccc1Cl (stereo not drawn) [IND_CC-509, 2-Chloro-N-[6-[9-(pyridin-2-yl-methyl)-3,9-diazaspiro[5.5]undecane-3-carbonyl]-2,3-dihydro-1H-inden-1-yl]-benzamide]	101%
O=C(NC1CCc2ccc(C(=O)N3CCC4(CCN(Cc5cccnc5)CC4)CC3)cc21)c1ccccc1Cl (stereo not drawn) [IND_CC-511, 2-Chloro-N-[6-[9-(pyridin-3-yl-methyl)-3,9-diazaspiro[5.5]undecane-3-carbonyl]-2,3-dihydro-1H-inden-1-yl]-benzamide]	94%
O=C(NC1CCc2ccc(C(=O)N3CCC4(CCN(Cc5c(F)cccc5F)CC4)CC3)cc21)c1ccccc1Cl (stereo not drawn) [IND_CC-513, 2-Chloro-N-[6-[9-[(2,6-difluoro-phenyl)-methyl]-3,9-diazaspiro[5.5]undecane-3-carbonyl]-2,3-dihydro-1H-inden-1-yl]-benzamide]	98%
O=C(NC1CCc2ccc(C(=O)N3CCC4(CCN(Cc5ccc(F)c(F)c5)CC4)CC3)cc21)c1ccccc1Cl (stereo not drawn) [IND_CC-514, 2-Chloro-N-[6-[9-[(3,4-difluoro-phenyl)-methyl]-3,9-diazaspiro[5.5]undecane-3-carbonyl]-2,3-dihydro-1H-inden-1-yl]-benzamide]	102%
O=C(NC1CCc2ccc(C(=O)N3CCC4(CCN(Cc5cc(F)ccc5F)CC4)CC3)cc21)c1ccccc1Cl (stereo not drawn) [IND_CC-515, 2-Chloro-N-[6-[9-[(2,5-difluoro-phenyl)-methyl]-3,9-diazaspiro[5.5]undecane-3-carbonyl]-2,3-dihydro-1H-inden-1-yl]-benzamide]	104%
COc1cccc(F)c1CN1CCC2(CC1)CCN(C(=O)c1ccc3c(c1)C(NC(=O)c1ccccc1Cl)CC3)CC2 (stereo not drawn) [IND_CC-517, 2-Chloro-N-[6-[9-[(2-fluoro-6-methoxy-phenyl)-methyl]-3,9-diazaspiro[5.5]undecane-3-carbonyl]-2,3-dihydro-1H-inden-1-yl]-benzamide]	90%
Cn1cccc1CN1CCC2(CC1)CCN(C(=O)c1ccc3c(c1)C(N(C(=O)c1ccccc1Cl)C1CC1)CC3)C2 (stereo not drawn) [IND_CC-519, 2-Chloro-N-cyclopropyl-N-[6-[8-[(1-methyl-1H-pyrrol-2-yl)-methyl]-2,8-diazaspiro[4.5]decane-2-carbonyl]-2,3-dihydro-1H-inden-1-yl]-benzamide]	53%
O=C(c1ccc2c(c1)C(N(C(=O)c1ccccc1Cl)C1CC1)CC2)N1CCC2(CCN(Cc3ccc(F)c(F)c3)CC2)C1 (stereo not drawn) [IND_CC-521, 2-Chloro-N-cyclopropyl-N-[6-[8-[(3,4-difluoro-phenyl)-methyl]-2,8-diazaspiro[4.5]decane-2-carbonyl]-2,3-dihydro-1H-inden-1-yl]-benzamide]	66%
O=C(c1ccc2c(c1)C(N(C(=O)c1ccccc1Cl)C1CC1)CC2)N1CCC2(CCN(Cc3ccc(F)cc3F)CC2)C1 (stereo not drawn) [IND_CC-523, 2-Chloro-N-cyclopropyl-N-[6-[8-[(2,4-difluoro-phenyl)-methyl]-2,8-diazaspiro[4.5]decane-2-carbonyl]-2,3-dihydro-1H-inden-1-yl]-benzamide]	68%

The remaining lines, values ahead:

inhibition at 10 µM	Structure (SMILES)
67%	CN(C(=O)c1ccccc1Cl)C1CCc2ccc(C(=O)N3CCC4(CCN(Cc5ccccc5C#N)CC4)C3)cc21 (stereo not drawn) [IND_CC-505, 2-Chloro-N-[6-[8-[(2-cyano-phenyl)-methyl]-2,8-diazaspiro[4.5]decane-2-carbonyl]-2,3-dihydro-1H-inden-1-yl]-N-methyl-benzamide]
61%	CN(C(=O)c1ccccc1Cl)C1CCc2ccc(C(=O)N3CCC4(CCN(Cc5ccc6nccnc6c5)CC4)C3)cc21 (stereo not drawn) [IND_CC-506, 2-Chloro-N-methyl-N-[6-[8-(quinoxalin-6-yl-methyl)-2,8-diazaspiro[4.5]decane-2-carbonyl]-2,3-dihydro-1H-inden-1-yl]-benzamide]
92%	Cn1cccc1CN1CCC2(CC1)CCN(C(=O)c1ccc3c(c1)C(NC(=O)c1ccccc1Cl)CC3)CC2 (stereo not drawn) [IND_CC-512, 2-Chloro-N-[6-[9-[(1-methyl-1H-pyrrol-2-yl)-methyl]-3,9-diazaspiro[5.5]undecane-3-carbonyl]-2,3-dihydro-1H-inden-1-yl]-benzamide]
102%	O=C(NC1CCc2ccc(C(=O)N3CCC4(CCN(Cc5ccc(F)cc5F)CC4)CC3)cc21)c1ccccc1Cl (stereo not drawn) [IND_CC-516, 2-Chloro-N-[6-[9-[(2,4-difluoro-phenyl)-methyl]-3,9-diazaspiro[5.5]undecane-3-carbonyl]-2,3-dihydro-1H-inden-1-yl]-benzamide]
86%	O=C(c1ccc2c(c1)C(N(C(=O)c1ccccc1Cl)C1CC1)CC2)N1CCC2(CCN(Cc3cccnc3)CC2)C1 (stereo not drawn) [IND_CC-518, 2-Chloro-N-cyclopropyl-N-[6-[8-(pyridin-3-yl-methyl)-2,8-diazaspiro[4.5]decane-2-carbonyl]-2,3-dihydro-1H-inden-1-yl]-benzamide]
72%	O=C(c1ccc2c(c1)C(N(C(=O)c1ccccc1Cl)C1CC1)CC2)N1CCC2(CCN(Cc3c(F)cccc3F)CC2)C1 (stereo not drawn) [IND_CC-520, 2-Chloro-N-cyclopropyl-N-[6-[8-[(2,6-difluoro-phenyl)-methyl]-2,8-diazaspiro[4.5]decane-2-carbonyl]-2,3-dihydro-1H-inden-1-yl]-benzamide]
55%	O=C(c1ccc2c(c1)C(N(C(=O)c1ccccc1Cl)C1CC1)CC2)N1CCC2(CCN(Cc3cc(F)ccc3F)CC2)C1 (stereo not drawn) [IND_CC-522, 2-Chloro-N-cyclopropyl-N-[6-[8-[(2,5-difluoro-phenyl)-methyl]-2,8-diazaspiro[4.5]decane-2-carbonyl]-2,3-dihydro-1H-inden-1-yl]-benzamide]

Same assay, conditions: rat B1R, 10 µM

% Inhibition (rat B1R) at 10 μM	Structure (SMILES)
95%	O=C(NC1CCc2ccc(C(=O)N3CCC4(CCN(Cc5ccncc5)CC4)CC3)cc21)c1ccccc1Cl (stereo not drawn) [IND_CC-510, 2-Chloro-N-[6-[9-(pyridin-4-yl-methyl)-3,9-diazaspiro[5.5]undecane-3-carbonyl]-2,3-dihydro-1H-inden-1-yl]-benzamide]
